Data reported in patent publication US6683079B2, “3-(amino-or aminoalkyl) pyridinone derivatives and their use for the treatment of HIV related diseases” (Centre National de la Recherche Scientifique, priority 1998, dated 2004).

Test system: HIV-1 strain IIIB
Test: Retrovirucidal effect on HIV-1 strain IIIB (Table 3)
Format: cell-based
Settings: pIC50=-log IC50, IC50 in M
Experimental: HIV-1 viral suspensions were obtained by coculture of MT4 cells and H9 cells chronically infected by HIV-ILai isolate. 200 μl of a cell supernatant containing viral particles (HIV-ILai: 100 TCID50) were incubated at room temperature with various concentrations of different inhibitors. After 3 hours, virions were washed through 0.02 μm anopore membrane in 1.5 mL Vectaspin tube (Whatman) for 10 minutes at 5 000 g. Each of the three subsequent washes was performed in the same conditions after the viral concentrate was refilled with 500 μL of RPMI medium. Then, the viral concentrate was readjusted to the initial volume with RPMI plus 10% foetal calf serum (FCS). The residual infectivity was assayed on P4 cells as described by CHARNEAU et al. (1994, J. Mol. Biol., 241, 651-662). Briefly, P4 cells were plated using 100 μL of DMEM medium plus 10% FCS in 96 plate multi-wells at 20×10^5 cells per mL. After overnight incubation at 37° C., the supernatant was discarded and the viral preparation (200 μL) was added. One day later the wells were washed three times in PBS. Each well was refilled with 200 μL of a reaction buffer containing 50 mM Tris-HCl pH 8.5, 100 mM 2-mercaptoethanol, 0.05% Triton X-100 and 5 mM 4-methylumbelliferyl β-D-galactopyranoside (MUG). After 3 hours at 37° C., the level of the reaction was measured in a fluorescence microplate reader.
The retrovirucidal effect of each pyridinone derivative listed in table 3 has been assayed according to the teachings of example 2, excepted that the anti-viral effect has been tested on the two following HIV-1 strains:
a) HIV-1 strain IIIB (see example 2);

In order of rising “HIV1 pIC50 strain IIIB” value:
1. Cc1cc(C)cc(Cc2c(C)c(C(C)C)[nH]c(=O)c2N)c1 [Compound 118]  4.042
2. CCc1c(C)[nH]c(=O)c(N(C)C)c1C(=O)Cc1cccc(C)c1 [Compound 127]  4.174
3. CCc1c(Cc2cc(C)cc(C)c2)c(N(C)C)c(=O)n(-c2ccccc2)c1C [Compound 152]  4.21
4. CCc1c(C)[nH]c(=O)c(N)c1C(=O)c1ccc(Br)s1 [Compound 194]  4.665
5. Cc1cccc(C(=O)c2c3c([nH]c(=O)c2N)CCC3)c1 [Compound 142]  4.889
6. CCc1c(C)[nH]c(=O)c(N)c1Cc1ccc(OC)c(C)c1 [Compound 156]  4.934
7. CCc1c(C)[nH]c(=O)c(N(C)C)c1CN(C)c1cc(C)cc(C)c1 [Compound 133]  4.94
8. Cc1cc(C)cc(Cc2c(Cl)c[nH]c(=O)c2N)c1 [Compound 105]  4.943
9. CCc1c(C)[nH]c(=O)c(N)c1Cc1cccc(OC)c1 [Compound 120]  5.033
10. Cc1cccc(C(=O)c2c(C)c(C)[nH]c(=O)c2N)c1 [Compound 94]  5.153
11. CCc1c(C)[nH]c(=O)c(N)c1Cc1cccc2ccccc12 [Compound 113]  5.273
12. Cc1cccc(Cc2c3c([nH]c(=O)c2N)CCCC3)c1 [Compound 91]  5.73
13. CCCc1cccc(Cc2c(CC)c(C)[nH]c(=O)c2N)c1 [Compound 103]  5.747
14. CCc1c(C)[nH]c(=O)c(N)c1C(=O)c1cccc(C(F)(F)F)c1 [Compound 140]  5.766
15. CCc1c(C)[nH]c(=O)c(N)c1C(=O)c1cc(Br)cs1 [Compound 186]  5.781
16. Cc1cccc(Cc2c3c([nH]c(=O)c2N)CCC3)c1 [Compound 131]  5.799
17. CCc1c(C)[nH]c(=O)c(N)c1C(=O)c1cc(F)cc(C(F)(F)F)c1 [Compound 182]  5.933
18. CCc1c(C)[nH]c(=O)c(N(CCOC)CCOC)c1Cc1cccc(C)c1 [Compound 180]  5.988
19. Cc1cc(C)cc(Cc2c(C)c(C(C)C)[nH]c(=O)c2N(C)C)c1 [Compound 119]  6.114
20. CCCCc1cc(Cc2cc(C)cc(C)c2)c(N)c(=O)[nH]1 [Compound 89]  6.237
21. CCCCc1cc(Cc2cc(C)cc(C)c2)c(N(C)C)c(=O)[nH]1 [Compound 90]  6.359
22. CCc1c(C)[nH]c(=O)c(N(C)C)c1C(=O)c1ccc2c(c1)OCCO2 [Compound 112]  6.394
23. CCc1c(C)[nH]c(=O)c(N)c1Cc1cc(Cl)cc(Cl)c1 [Compound 189]  6.401
24. CCc1c(C)[nH]c(=O)c(N(C)C)c1Cc1ccc(OC)c(C)c1 [Compound 157]  6.413
25. CCc1c(C)[nH]c(=O)c(N(C)CCOCc2ccccc2)c1Cc1cccc(C)c1 [Compound 144]  6.446
26. CCc1c(C)[nH]c(=O)c(N(C)C)c1Cc1cccc2ccccc12 [Compound 116]  6.627
27. CCc1c(C)[nH]c(=O)c(N(C)C)c1Cc1ccc(Cl)cc1 [Compound 55]  6.651
28. CCc1c(C)[nH]c(=O)c(N(C)C)c1Cc1ccc2c(c1)OCCO2 [Compound 135]  6.688
29. CCc1c(Cc2cc(C)cc(C)c2)c(N(C)C)c(=O)n(N)c1C [Compound 153]  6.749
30. CCc1c(C)[nH]c(=O)c(NC)c1Cc1cccc(C(F)(F)F)c1 [Compound 139]  6.908
31. CCc1[nH]c(=O)c(N(C)C)c(C(=O)c2cccc(C)c2)c1C [Compound 108]  7.005
32. CCc1c(C)[nH]c(=O)c(N)c1Sc1cccc(C)c1 [Compound 159]  7.011
33. CCc1c(C)[nH]c(=O)c(N)c1Sc1cccc(Br)c1 [Compound 188]  7.063
34. Cc1cc(C)cc(Cc2c(Cl)c[nH]c(=O)c2N(C)C)c1 [Compound 106]  7.063
35. CCc1c(C)[nH]c(=O)c(N(C)C)c1Cc1cccc(O)c1 [Compound 122]  7.196
36. CCc1c(C)[nH]c(=O)c(N(C)C)c1C(=O)c1cccc(COc2ccccc2)c1 [Compound 143]  7.421
37. CCc1c(C)[nH]c(=O)c(N(C)CCC(C)C)c1Cc1cccc(C)c1 [Compound 155]  7.514
38. CCc1c(C)[nH]c(=S)c(N(C)C)c1Cc1cc(C)cc(C)c1 [Compound 137]  7.658
39. CCc1c(C)[nH]c(=O)c(N(C)C)c1Cc1ccc2c(c1)OCO2 [Compound 147]  7.721
40. CCc1c(C)[nH]c(=O)c(N)c1C(=O)c1cc(Cl)cc(Cl)c1 [Compound 190]  7.757
41. CCc1c(C)[nH]c(=O)c(N(C)C)c1Cc1cccc(CO)c1 [Compound 110]  7.783
42. Cc1cccc(Cc2c3c([nH]c(=O)c2N(C)C)CCCC3)c1 [Compound 92]  7.807
43. CCc1c(C)[nH]c(=O)c(N(C)C)c1C(=O)c1cccc(CO)c1 [Compound 128]  7.848
44. Cc1cccc(C(=O)c2c3c([nH]c(=O)c2N(C)C)CCC3)c1 [Compound 148]  7.863
45. Cc1cccc(Cc2c3c([nH]c(=O)c2N(C)C)CCC3)c1 [Compound 132]  7.863
46. CCOc1cccc(Cc2c(CC)c(C)[nH]c(=O)c2N(C)C)c1 [Compound 181]  7.928
47. CCc1c(C)[nH]c(=O)c(N(CC)CC)c1C(=O)c1cccc(C)c1 [Compound 95]  8.268
48. CCc1c(C)[nH]c(=O)c(N(C)C)c1C(=O)c1cc(F)cc(C(F)(F)F)c1 [Compound 183]  8.481
49. CCc1c(C)[nH]c(=O)c(N(C)C)c1C(=O)c1cccc(C)c1 [Compound 93]  8.721

With `CCc1c(C)[nH]c(=O)c(N)c1C(=O)c1ccc2c(c1)OCCO2` [Compound 111] the “HIV1 pIC50 strain IIIB” value was <4.
For `CCc1c(C)[nH]c(=O)c(N(C)C)c1Cc1nccn1C` [Compound 88], the “HIV1 pIC50 strain IIIB” value was <4.

Same assay, conditions: retrovirucidal effect, pIC50=-log IC50 (M)

In order of falling “HIV1 pIC50 strain IIIB” value:
1. CCc1c(C)[nH]c(=O)c(N(C)C)c1Cc1ccccc1Br [Compound 203]  8.161
2. CCc1c(C)[nH]c(=O)c(N)c1Oc1cc(C)cc(C)c1 [Compound 197]  7.307
3. CCc1c(C)[nH]c(=O)c(N)c1Cc1ccccc1Br [Compound 202]  5.715
4. Cc1c[nH]c(=O)c(N)c1SCc1ccccc1 [Compound 198]  4.457
